The target in one assay is T1, 5-HT2A (Homo sapiens, UniProt P28223).
T1 construct: expressed in transfected cells; the paragraph before it names a CHO-K1-mt aequorin Gα16 cell line
Briefly: cell-based. As to conditions: FLIPR calcium assay, agonist mode.

Another assay deals with T2, 5-HT2B (Homo sapiens, UniProt P41595).
T2 construct: expressed in transfected cells; the paragraph before it names a CHO-K1-mt aequorin Gα16 cell line
Nature of the assay: cell-based. As to conditions: FLIPR calcium assay, agonist mode.

Another assay concerns the target T3, 5-HT2C (Homo sapiens, UniProt P28335).
T3 construct: expressed in transfected cells; the paragraph before it names a CHO-K1-mt aequorin Gα16 cell line
T3 sequence (P28335 33-458): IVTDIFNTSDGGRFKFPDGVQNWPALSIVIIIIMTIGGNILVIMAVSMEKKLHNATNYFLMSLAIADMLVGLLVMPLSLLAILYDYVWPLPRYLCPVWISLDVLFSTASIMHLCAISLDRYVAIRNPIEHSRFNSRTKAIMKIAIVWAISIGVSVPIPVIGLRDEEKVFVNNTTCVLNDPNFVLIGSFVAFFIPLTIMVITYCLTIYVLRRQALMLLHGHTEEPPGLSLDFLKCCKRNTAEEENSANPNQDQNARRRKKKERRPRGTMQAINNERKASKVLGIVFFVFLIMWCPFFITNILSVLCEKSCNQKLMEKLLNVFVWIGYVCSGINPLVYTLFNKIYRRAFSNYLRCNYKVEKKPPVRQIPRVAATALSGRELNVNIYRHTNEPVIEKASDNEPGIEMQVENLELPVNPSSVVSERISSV
Nature of the assay: 5-HT2C pharmacological screening by FLIPR assay in agonist mode. It is filed as cell-based.

The mark [1] stands for this setting: class symbols, read-out: 5-HT2A (EC50, % max activity).
[2] abbreviates: class symbols, read-out: 5-HT2B (EC50, % max activity).
Where [3] appears, read: 5-HT2A (EC50, % max activity), class symbols.
[4] abbreviates: 5-HT2B (EC50, % max activity), class symbols.
Where [5] appears, read: FLIPR calcium assay, agonist mode, approximate values, read-out: 5-HT2C, (EC50, % max activity).
The mark [6] stands for this setting: FLIPR calcium assay, agonist mode, class symbols, read-out: 5-HT2C (EC50, % max activity).
[7] abbreviates: 5-HT2A, (EC50, % max activity), approximate values.
The mark [8] stands for this setting: 5-HT2B, (EC50, % max activity), approximate values.

The record followed here is patent US20240182480A1, “5-HT2A AND/OR 5-HT2C RECEPTOR AGONISTS” (priority 2021, published 2024).

Structures are written as SMILES. Like-named read-outs stand apart in the source and are kept apart here.

T2 sequence (P41595 whole entry): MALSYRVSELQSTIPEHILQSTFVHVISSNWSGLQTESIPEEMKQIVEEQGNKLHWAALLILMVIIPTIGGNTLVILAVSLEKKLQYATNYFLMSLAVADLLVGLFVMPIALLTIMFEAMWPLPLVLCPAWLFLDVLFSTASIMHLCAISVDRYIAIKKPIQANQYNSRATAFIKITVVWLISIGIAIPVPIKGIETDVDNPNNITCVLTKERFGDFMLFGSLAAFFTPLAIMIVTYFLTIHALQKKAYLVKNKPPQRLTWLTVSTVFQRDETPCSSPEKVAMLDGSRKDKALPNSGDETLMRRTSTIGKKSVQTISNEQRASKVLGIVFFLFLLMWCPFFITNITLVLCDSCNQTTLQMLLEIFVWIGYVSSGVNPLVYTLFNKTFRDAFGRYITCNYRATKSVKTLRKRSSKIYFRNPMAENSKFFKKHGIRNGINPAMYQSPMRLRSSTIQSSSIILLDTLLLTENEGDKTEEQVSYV
T1 sequence (P28223 whole entry): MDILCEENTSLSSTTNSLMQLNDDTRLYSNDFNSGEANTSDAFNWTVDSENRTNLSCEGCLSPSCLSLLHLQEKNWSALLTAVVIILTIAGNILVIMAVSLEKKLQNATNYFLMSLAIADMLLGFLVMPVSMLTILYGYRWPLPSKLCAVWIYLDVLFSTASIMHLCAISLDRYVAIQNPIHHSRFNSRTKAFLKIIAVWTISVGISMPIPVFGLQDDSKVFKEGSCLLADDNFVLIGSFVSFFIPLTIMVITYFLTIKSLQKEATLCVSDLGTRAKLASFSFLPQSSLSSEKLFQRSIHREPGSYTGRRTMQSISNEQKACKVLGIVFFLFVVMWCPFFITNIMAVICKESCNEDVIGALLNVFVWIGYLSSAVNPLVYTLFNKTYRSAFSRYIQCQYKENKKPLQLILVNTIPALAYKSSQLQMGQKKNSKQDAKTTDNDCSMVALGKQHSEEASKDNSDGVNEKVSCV

As for `CN(C)c1cnc2c(n1)CCNCC2` [Example 15, N,N-dimethyl-6,7,8,9-tetrahydro-5H-pyrazino[2,3-d]azepin-2-amine], the EC50 at 5-HT2A (setting [1]) is more than 6000 nM; on 5-HT2B (setting [2]), 200 to 1000 nM.

Turning to `CN1CCc2[nH]c3ncccc3c2CC1` [Example 22, 7-methyl-5,6,7,8,9,10-hexahydropyrido[3′,2′:4,5]pyrrolo[2,3-d]azepine], the EC50 on 5-HT2C (5-HT2C (EC50, % max activity, FLIPR calcium assay, agonist mode), class symbols) is more than 6000 nM; on 5-HT2A (setting [3]), more than 6000 nM; at 5-HT2B (setting [4]) it was more than 6000 nM.

For `c1ccc(COc2cnc3c(n2)CCNCC3)cc1` [Example 18, 2-(benzyloxy)-6,7,8,9-tetrahydro-5H-pyrazino[2,3-d]azepine], the concentration giving a half-maximal response (EC50) on 5-HT2A (setting [3]) is more than 6000 nM; at 5-HT2B (setting [4]) it was less than 200 nM.

As to `Nc1cnc2c(n1)CCNCC2` [Example 19, 6,7,8,9-tetrahydro-5H-pyrazino[2,3-d]azepin-2-amine], the EC50 at 5-HT2A (setting [1]) and on 5-HT2B (setting [2]) was more than 6000 nM in each case.

For `FC1CN(c2cnc3c(n2)CCNCC3)C1` [Example 17, 2-(3-fluoroazetidin-1-yl)-6,7,8,9-tetrahydro-5H-pyrazino[2,3-d]azepine], the half-maximal effective concentration (EC50) on 5-HT2A (setting [1]) and on 5-HT2B (setting [2]) was more than 6000 nM in each case.

For the molecule `c1nc2c(nc1N1CCCOCC1)CCNCC2` [Example 1, 4-(6,7,8,9-tetrahydro-5H-pyrazino[2,3-d]azepin-2-yl)-1,4-oxazepane], the half-maximal effective concentration (EC50) was approximately 100 nM at 5-HT2C (setting [5]); less than 200 nM at 5-HT2C (setting [6]); 1000 to 6000 nM at 5-HT2A (setting [3]); approximately 2000 nM on 5-HT2A (setting [7]); more than 6000 nM on 5-HT2B (setting [4]); more than 30000 nM at 5-HT2B (setting [8]).

Regarding `FC1(F)CCN(c2cnc3c(n2)CCNCC3)CC1` [Example 2, 2-(4,4-difluoropiperidin-1-yl)-6,7,8,9-tetrahydro-5H-pyrazino[2,3-d]azepine], the EC50 is approximately 200 nM on 5-HT2C (setting [5]); less than 200 nM on 5-HT2C (setting [6]); 200 to 1000 nM on 5-HT2A (setting [3]); approximately 900 nM at 5-HT2A (setting [7]); 1000 to 6000 nM on 5-HT2B (setting [4]); approximately 4000 nM at 5-HT2B (setting [8]).

As for `FC1CCN(c2cnc3c(n2)CCNCC3)CC1` [Example 4, 2-(4-fluoropiperidin-1-yl)-6,7,8,9-tetrahydro-5H-pyrazino[2,3-d]azepine], the EC50 on 5-HT2A (setting [1]) was in the range of 1000 to 6000 nM; on 5-HT2B (setting [2]), 200 to 1000 nM.

With `Clc1cnc2c(n1)CCNCC2` [Example 20, 2-chloro-6,7,8,9-tetrahydro-5H-pyrazino[2,3-d]azepine], the EC50 on 5-HT2A (setting [3]) and at 5-HT2B (setting [4]) was more than 6000 nM each time.

For `c1nc2c(nc1N1CCCC1)CCNCC2` [Example 16, 2-(pyrrolidin-1-yl)-6,7,8,9-tetrahydrahydro-5H-pyrazino[2,3-d]azepine], the results for the concentration giving a half-maximal response (EC50) on 5-HT2A (setting [1]) and at 5-HT2B (setting [2]) were more than 6000 nM and 200 to 1000 nM, respectively.
